A word on the EC50: it is the concentration at which the effect is half-maximal.

Four compounds from patent US4404217A, “3-Indolyl alkylene amino propanols and cardiovascular compositions thereof” (C. M. Industries, priority 1979, dated 1983) can be followed below.

A value given as a limit tells only on which side of the number the result lay.

T1 sequence (P10608 whole entry): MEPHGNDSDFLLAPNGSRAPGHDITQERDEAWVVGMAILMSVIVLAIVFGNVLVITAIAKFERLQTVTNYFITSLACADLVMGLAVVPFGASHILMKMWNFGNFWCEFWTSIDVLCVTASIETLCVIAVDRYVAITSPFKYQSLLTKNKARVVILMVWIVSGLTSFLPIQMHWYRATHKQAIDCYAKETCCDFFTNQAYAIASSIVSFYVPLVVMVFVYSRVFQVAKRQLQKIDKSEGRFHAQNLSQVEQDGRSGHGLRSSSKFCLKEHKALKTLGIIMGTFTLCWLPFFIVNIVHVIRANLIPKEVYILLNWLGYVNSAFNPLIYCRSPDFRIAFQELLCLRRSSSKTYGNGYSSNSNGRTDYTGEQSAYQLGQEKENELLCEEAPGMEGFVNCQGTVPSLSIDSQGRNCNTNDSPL
T3 sequence (P79148 whole entry): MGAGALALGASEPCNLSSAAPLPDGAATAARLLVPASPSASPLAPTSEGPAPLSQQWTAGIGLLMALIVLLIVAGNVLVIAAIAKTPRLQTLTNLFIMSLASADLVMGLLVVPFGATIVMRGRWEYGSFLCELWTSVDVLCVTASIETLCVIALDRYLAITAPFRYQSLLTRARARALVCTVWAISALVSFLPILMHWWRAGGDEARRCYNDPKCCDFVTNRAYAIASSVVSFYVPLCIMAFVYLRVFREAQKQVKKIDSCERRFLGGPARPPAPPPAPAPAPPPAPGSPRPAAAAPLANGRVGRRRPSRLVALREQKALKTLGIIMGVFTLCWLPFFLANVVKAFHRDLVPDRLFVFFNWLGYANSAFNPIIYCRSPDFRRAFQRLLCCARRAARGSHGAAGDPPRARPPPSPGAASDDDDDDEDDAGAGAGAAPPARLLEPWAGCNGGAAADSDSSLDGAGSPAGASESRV
T5 sequence (P54833 whole entry): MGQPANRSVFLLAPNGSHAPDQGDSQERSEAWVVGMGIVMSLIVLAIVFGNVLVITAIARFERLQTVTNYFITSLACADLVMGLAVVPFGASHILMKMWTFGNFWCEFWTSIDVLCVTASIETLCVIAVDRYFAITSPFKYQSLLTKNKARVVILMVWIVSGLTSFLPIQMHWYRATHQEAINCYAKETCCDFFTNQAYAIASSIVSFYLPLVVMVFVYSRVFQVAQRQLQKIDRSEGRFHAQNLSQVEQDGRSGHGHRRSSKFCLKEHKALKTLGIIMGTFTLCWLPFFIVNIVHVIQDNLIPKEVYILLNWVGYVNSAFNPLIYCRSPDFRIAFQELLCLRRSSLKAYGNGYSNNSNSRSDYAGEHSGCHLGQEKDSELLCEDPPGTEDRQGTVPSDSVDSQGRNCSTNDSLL

One assay has as its target T1, β2 receptors (Rattus norvegicus, UniProt P10608).
T1 construct: lungs of rats (β2 receptors); from tissue; host or cells: rat lung plasma membranes
Put plainly: Displacement of 3H dihydroalprenolol, plasmic membranes of lungs of rats. The format is binding.
Conditions: not given
As for the experimental part: (§1) The binding tests are effected on suspensions of plasmic membranes coming from various organs. The suspensions of membranes are placed in incubation with the tritiated ligand and various concentrations of products to be tested. After incubation, each test is filtered on GFB(Whatman) filter, the filters are dried and introduced into counting flasks. The measurement of the radioactivity is assessed by scintillation in a liquid medium.
(§2) The tests were made on plasmic membranes of hearts of dogs (β1 receptor) and lungs of rats (β2 receptors), in the presence of ^3 H dihydroalprenolol 4×10^-9 M.
As for `CC(Cc1c[nH]c2ccccc12)NCC(O)COc1ccccc1Cl` (stereo not drawn) [compound 7806], the EC50 came out at 12 nM.

Compound `Cc1ccccc1OCC(O)CNC(C)Cc1c[nH]c2ccccc12` (stereo not drawn) [compound 7744] came in with an EC50 of 52 nM.

Staying with this assay, now noted: rat lung membranes; 3H dihydroalprenolol 4×10^-9 M.
Turning to `Cc1ccccc1OC[C@H](O)CN[C@H](CO)Cc1c[nH]c2ccccc12` [compound 7903], the EC50 is 2000 nM.

The assay is the same for the next values; noted with them: read-out: EC50 of DISPLACEMENT of 3H DIHYDROALPRENOLOL, Lung (β2); rat lung membranes; 3H dihydroalprenolol 4×10^-9 M.
As for `Cc1ccccc1OCC(O)CNC(CO)Cc1c[nH]c2ccccc12` (racemic) [compound 7906], the EC50 came to 155 nM.

A further assay addresses T2, α2 receptor (Rattus norvegicus, UniProt P22909).
T2 construct: plasmic membranes of rat brains; from tissue; host or cells: rat brain plasma membranes
T2 sequence (P22909 1-465): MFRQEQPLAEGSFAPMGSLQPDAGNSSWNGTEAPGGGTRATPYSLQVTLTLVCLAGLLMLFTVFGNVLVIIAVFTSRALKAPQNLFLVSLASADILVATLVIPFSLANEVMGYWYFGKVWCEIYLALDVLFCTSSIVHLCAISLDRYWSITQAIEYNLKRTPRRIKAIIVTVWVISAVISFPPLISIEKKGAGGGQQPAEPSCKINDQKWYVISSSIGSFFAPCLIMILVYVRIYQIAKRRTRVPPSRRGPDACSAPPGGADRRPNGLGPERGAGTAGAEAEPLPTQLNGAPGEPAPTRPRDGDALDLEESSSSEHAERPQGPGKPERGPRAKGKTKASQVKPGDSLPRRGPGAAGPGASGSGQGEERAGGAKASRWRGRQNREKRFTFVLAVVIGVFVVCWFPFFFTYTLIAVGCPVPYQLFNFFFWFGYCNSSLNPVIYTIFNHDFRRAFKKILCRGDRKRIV
Put plainly: Displacement of 3H clonidine, plasmic membranes of rat brains.
Conditions: not given
The format is binding. As to the method: as §1
(§3) The tests were made on plasmic membranes of rat brains, in the presence of ^3 H clonidine 1.2×10^-9 M (α2 receptor) and of ^3 H WB4101 (N-[2-(2.6dimethoxyphenoxy)ethyl]1.4benzodioxane-2-methylamine), 0.2×10^-9 M (α1 receptor).
(In a radioligand displacement assay an active substance lowers the binding of a labelled ligand.)
As for `CC(Cc1c[nH]c2ccccc12)NCC(O)COc1ccccc1Cl` (stereo not drawn) [compound 7806], the concentration giving a half-maximal response (EC50) is 12 nM.

`Cc1ccccc1OCC(O)CNC(C)Cc1c[nH]c2ccccc12` (stereo not drawn) [compound 7744]: the midpoint of the response, the EC50, lay at 20.5 nM.

The assay is the same for the next values; noted with them: in vitro.
As for `Cc1ccccc1OC[C@H](O)CN[C@H](CO)Cc1c[nH]c2ccccc12` [compound 7903], the “affinity for the receptor with clonidine (α2)” value is recorded as “no affinity”.

Turning to `CC(Cc1c[nH]c2ccccc12)NCC(O)COc1ccccc1Cl` (stereo not drawn) [compound 7806], the “affinity for the receptor with clonidine (α2)” value was “no affinity”.

The assay is the same for the next values; noted with them: rat brain membranes; 3H clonidine 1.2×10^-9 M.
In turn, `Cc1ccccc1OC[C@H](O)CN[C@H](CO)Cc1c[nH]c2ccccc12` [compound 7903] gave an EC50 of 29.5 nM.

The same assay, now with this note: read-out: EC50 of DISPLACEMENT of 3H CLONIDINE; rat brain membranes; 3H clonidine 1.2×10^-9 M.
Consider `Cc1ccccc1OCC(O)CNC(CO)Cc1c[nH]c2ccccc12` (racemic) [compound 7906], for which the EC50 stood at 41 nM.

Another assay has as its target T3, β adrenergic receptors (β1) (Canis lupus familiaris, UniProt P79148).
T3 construct: The dog is anaesthetized using sodium pentobarbital; from tissue; host or cells: whole anaesthetized dog (heart)
Put plainly: Antagonism of the effects of isoprenaline, tachycardia (β1), anaesthetized dog, IV. It is filed as in vivo. The settings on record: dog, IV; 50% inhibition of isoprenaline tachycardia; read-out: ID50 ISOPRENALINE β1.
Turning to `Cc1ccccc1OCC(O)CNC(CO)Cc1c[nH]c2ccccc12` (racemic) [compound 7906], the ED50 lay within 0.3 to 1 mg/kg.

As to `Cc1ccccc1OC[C@H](O)CN[C@H](CO)Cc1c[nH]c2ccccc12` [compound 7903], the ED50 came out at 3 mg/kg.

Staying with this assay, now noted: dog, IV; isoprenaline antagonism, β1 versus β2.
With `Cc1ccccc1OCC(O)CNC(CO)Cc1c[nH]c2ccccc12` (racemic) [compound 7906], the “cardioselectivity β1 - β2” value is given as “β1 ≥ β2 (low cardioselectivity β1 ≥β2)”.

`Cc1ccccc1OC[C@H](O)CN[C@H](CO)Cc1c[nH]c2ccccc12` [compound 7903]: the “cardioselectivity β1 - β2” value is reported as “β1 < β2 (no cardioselectivity β1 <β2)”.

`Cc1ccccc1OCC(O)CNC(C)Cc1c[nH]c2ccccc12` (stereo not drawn) [compound 7744]: the “cardioselectivity β1 - β2” value is “β1 > β2 (cardioselectivity (β1 >β2))”.

Staying with this assay, now noted: dog, iv, read-out: ID50 ISOPRENALINE β1.
Regarding `CC(Cc1c[nH]c2ccccc12)NCC(O)COc1ccccc1Cl` (stereo not drawn) [compound 7806], the ED50 stood at 0.3 mg/kg.

As to `Cc1ccccc1OCC(O)CNC(C)Cc1c[nH]c2ccccc12` (stereo not drawn) [compound 7744], the ED50 amounted to 0.1 mg/kg.

The same assay, now with this note: test with isoprenaline.
For the compound `Cc1ccccc1OCC(O)CNC(C)Cc1c[nH]c2ccccc12` (stereo not drawn) [compound 7744], the “cardioselective in vivo (selectively inhibit the cardiac receptors)” value is recorded as “cardioselective in vivo”.

In another assay the target is T4, β1 receptor (Canis lupus familiaris, UniProt P79148).
T4 construct: plasmic membranes of hearts of dogs (β1 receptor); from tissue; host or cells: dog heart plasma membranes
T4 sequence (P79148 whole entry): as the sequence (P79148 whole entry) above
Put plainly: Displacement of 3H dihydroalprenolol, plasmic membranes of hearts of dogs. The format is binding, dog.
Conditions: not given
As to the method:
as §1, §2
Take `CC(Cc1c[nH]c2ccccc12)NCC(O)COc1ccccc1Cl` (stereo not drawn) [compound 7806]: a half-maximal response (EC50) required 27.5 nM.

With `Cc1ccccc1OCC(O)CNC(C)Cc1c[nH]c2ccccc12` (stereo not drawn) [compound 7744], the midpoint of the response, the EC50, lay at 31 nM.

The assay is the same for the next values; noted with them: dog heart membranes; 3H dihydroalprenolol 4×10^-9 M.
For `Cc1ccccc1OC[C@H](O)CN[C@H](CO)Cc1c[nH]c2ccccc12` [compound 7903], the EC50 was found to be 2050 nM.

Still in this assay, the particulars now being: read-out: EC50 of DISPLACEMENT of 3H DIHYDROALPRENOLOL, Heart (β1); dog heart membranes; 3H dihydroalprenolol 4×10^-9 M.
Consider `Cc1ccccc1OCC(O)CNC(CO)Cc1c[nH]c2ccccc12` (racemic) [compound 7906], for which the EC50 is 215 nM.

Another assay concerns platelet aggregation. The experiment in a line: Anti-aggregating activity, BORN technique, plasma rich in platelets, ADP. The format is cell-based, human. The settings on record: Homo sapiens, Platelet, read-out: concentration for inhibiting by 50% the maximum rate of aggregation. As for the experimental part: The anti-aggregating activity of the CM 7743, 7744, 7824, 7854, 7859 and 7874 has been studied according to the BORN technique on plasma rich in platelets of human origin. ADP has been used as indicator of platelet aggregation. […] The required concentration for inhibiting by 50% the maximum rate of aggregation varies from 45 to 100 μM.
Take `Cc1ccccc1OCC(O)CNC(C)Cc1c[nH]c2ccccc12` (stereo not drawn) [compound 7744]: the IC50 fell in the range of 45000 to 100000 nM.

The same assay, now with this note: human platelet-rich plasma.
As to `Cc1ccccc1OCC(O)CNC(C)Cc1c[nH]c2ccccc12` (stereo not drawn) [compound 7744], the “inhibition of the platelet response with respect to the ADP” value is recorded as “inhibited the platelet response”.

The next assay concerns the target T5, β adrenergic receptors (β2) (Canis lupus familiaris, UniProt P54833).
T5 construct: The dog is anaesthetized using sodium pentobarbital; from tissue; host or cells: whole anaesthetized dog (vasculature)
Put plainly: Antagonism of the effects of isoprenaline, hypotension (β2), anaesthetized dog, IV. The format is in vivo. As to conditions: IV, 50% inhibition of isoprenaline hypotension, read-out: ID50 ISOPRENALINE β2. As to the method: (§4) The dog is anaesthetized using sodium pentobarbital, administered by the IV route at a dose of 30 mg/kg. A cannula placed in the saphenous vein allows the intra-venous injections of the products. The animal is submitted to intubation and is allowed to breathe spontaneously.
(§5) The cardiac frequency and the systemic arterial pressure are studied and the variations of these parameters are observed after intra-venous injection of the product to be tested. Each product is tested with increasing doses.
The antagonism of the products with respect to the β stimulant cardio-vascular effects of isoprenaline on the β adrenergic receptors has been sought. […] The last column indicates the cardioselectivity (β1 >β2) or a low cardioselectivity β1 ≥β2, or no cardioselectivity β1 <β2 and β1 =β2.
For the compound `Cc1ccccc1OCC(O)CNC(CO)Cc1c[nH]c2ccccc12` (racemic) [compound 7906], the ED50 turned out to be 1 mg/kg.

Consider `Cc1ccccc1OC[C@H](O)CN[C@H](CO)Cc1c[nH]c2ccccc12` [compound 7903], for which the ED50 worked out at 1 mg/kg.

On to `Cc1ccccc1OCC(O)CNC(C)Cc1c[nH]c2ccccc12` (stereo not drawn) [compound 7744], for which the ED50 was no less than 0.3 mg/kg.

The same assay, now with this note: iv, read-out: ID50 ISOPRENALINE β2.
As to `CC(Cc1c[nH]c2ccccc12)NCC(O)COc1ccccc1Cl` (stereo not drawn) [compound 7806], the ED50 was no less than 0.1 mg/kg.

System in another assay: not listed separately
Put plainly: Cardiac frequency and arterial pressure in the anaesthetized dog after intravenous injection. It is filed as in vivo. The settings on record: i.v. route, anaesthetised dog. As to the method:
as §4, §5
Turning to `Cc1ccccc1OCC(O)CNC(CO)Cc1c[nH]c2ccccc12` (racemic) [compound 7906], the “reduction in the peripheral arterial pressure” value (“reduction” below) is reported as “reduction in the peripheral arterial pressure”.

For the compound `Cc1ccccc1OC[C@H](O)CN[C@H](CO)Cc1c[nH]c2ccccc12` [compound 7903], the “reduction” value is listed as “reduction in the peripheral arterial pressure”.

As to `CC(Cc1c[nH]c2ccccc12)NCC(O)COc1ccccc1Cl` (stereo not drawn) [compound 7806], the “reduction” value is “reduction in the peripheral arterial pressure”.

Consider `Cc1ccccc1OCC(O)CNC(C)Cc1c[nH]c2ccccc12` (stereo not drawn) [compound 7744], for which the “reduction” value is “reduction in the peripheral arterial pressure”.

A further assay has as its system α1 receptor. Put plainly: Displacement of 3H WB 4101, plasmic membranes of rat brains. The settings on record: in vitro. The format is binding. As for the experimental part:
as §1, §3
Consider `CC(Cc1c[nH]c2ccccc12)NCC(O)COc1ccccc1Cl` (stereo not drawn) [compound 7806], for which the “affinity for the receptor with WB 4101 (α1)” value is “have an affinity”.

Take `Cc1ccccc1OCC(O)CNC(C)Cc1c[nH]c2ccccc12` (stereo not drawn) [compound 7744]: the “affinity for the receptor with WB 4101 (α1)” value was “have an affinity”.

The same assay, now with this note: read-out: EC50 of DISPLACEMENT of 3H WB 4101; rat brain membranes; 3H WB4101 0.2×10^-9 M.
Turning to `Cc1ccccc1OCC(O)CNC(CO)Cc1c[nH]c2ccccc12` (racemic) [compound 7906], the EC50 amounted to 1.1 nM.

Consider `Cc1ccccc1OC[C@H](O)CN[C@H](CO)Cc1c[nH]c2ccccc12` [compound 7903], for which the EC50 came to 1.9 nM.

For the compound `CC(Cc1c[nH]c2ccccc12)NCC(O)COc1ccccc1Cl` (stereo not drawn) [compound 7806], the EC50 worked out at 310 nM.

For `Cc1ccccc1OCC(O)CNC(C)Cc1c[nH]c2ccccc12` (stereo not drawn) [compound 7744], the EC50 was found to be 500 nM.

In a further assay the test system is α adrenergic receptors. Put plainly: Antagonism of the effects of noradrenaline (pressure response), anaesthetized dog, IV. It is filed as in vivo. The settings on record: 50% inhibition of pressure response to noradrenaline. As to the method: as §4, §5
The antagonism of the products with respect to the vascular effects provoked by the IV administration of noradrenaline on the α adrenergic receptors has been sought. The results presented in Table III are expressed in ID50 : it is the dose (mg/kg) which provokes the inhibition by 50% of the pressure response due to the IV administration of noradrenaline.
In the case of `Cc1ccccc1OCC(O)CNC(CO)Cc1c[nH]c2ccccc12` (racemic) [compound 7906], the “ID50 NORADRENALINE α” value is on record as greater than 3 mg/kg.

For the compound `Cc1ccccc1OC[C@H](O)CN[C@H](CO)Cc1c[nH]c2ccccc12` [compound 7903], the “ID50 NORADRENALINE α” value was 3 mg/kg.

In the case of `CC(Cc1c[nH]c2ccccc12)NCC(O)COc1ccccc1Cl` (stereo not drawn) [compound 7806], the “ID50 NORADRENALINE α” value is 0.3 mg/kg.

For `Cc1ccccc1OCC(O)CNC(C)Cc1c[nH]c2ccccc12` (stereo not drawn) [compound 7744], the “ID50 NORADRENALINE α” value was in the range of 0.1 to 1 mg/kg.
